In US11160836B2, “Transgenic pig islets and uses thereof for treating diabetes” (priority 2014, dated 2021):

Tests used:
MIN6 cells = experiment: Glucose-induced insulin secretion from transfected MIN6 cells, static incubation; format: cell-based, murine; conditions: MIN6 cells 48 h after plasmid transfection; 2 h in 1 or 15 mM glucose; control cells 2.2
Description: FIG. 2 is a histogram showing glucose-induced insulin secretion from transfected Min6 cells incubated with 1 (G1) or 15 mM (G15) glucose. The numbers above pairs of columns represent the stimulation ratio (G15/G1) in each group. * p<0.05 indicates significant difference between test groups and controls. Values are means±SEM for n=15-21 from 7 different experiments.
To verify the effect of the transgenic proteins on insulin secretion, transfected and control MIN6 cells were challenged by an increase of glucose concentration during static incubation experiments. Insulin secretion was measured and the stimulation index i.e., the ratio between insulin secretion at high glucose and insulin secretion at low glucose, of transgenic and control cells was calculated. In brief, 2·10^5 cells were seeded in 12-well plates and cultivated for 48 h before they were transfected with one the plasmids carrying the GLP-1 (7-37) gene (GLP-1), the mutated GLP-1 (7-A8S-37) gene (GLP-1 Ser8) or the constitutively activated muscarinic receptor gene (M3). Control cells were simply exposed to Lipofectamine without any plasmidic DNA. 48 h after transfection, cells were starved then incubated for 2 h in a 1 mL Krebs-Ringer buffer containing either 1 or 15 mM glucose. Insulin secretion was measured in the incubation media and expressed as a percentage of total insulin content of the cells.

adult pig islets = experiment: Dynamic islet perifusion, glucose-induced insulin secretion of virus-treated adult pig islets; format: cell-based; conditions: adenoviral vector MOI 200, 48 h, perifused G1 then 30 min G15
Description: FIG. 4 is a graph showing the insulin secretion of isolated adult pig islets exposed to 200 MOI viral expression vectors carrying sequences coding for GLP-1 (GLP-1 Ser8), activated muscarinic receptor (M3R) or both (GLP-1+M3R) during 48 hours. Batches of 600 islets were perifused in krebs medium containing 1 mM glucose (G1) then 15 mM glucose (G15) as indicated on top of the figure. Insulin secretion was then measured in the effluent fractions. Values are means±SEM for n=3-4 from 4 different preparations.
The effect of transgenic PKA and PKC activation on glucose-induced insulin secretion was also tested during dynamic islet perifusion experiments. Control and virus-treated adult islets were placed in perifusion chambers sealed with 0.2 μm filters. Islets were first perifused with 1 mM glucose (G1) krebs medium during 30 minutes for equilibrium then during 10 minutes in G1 with media collection every 2 minutes followed by 30 minutes stimulation with G15.

isolated pig islets = experiment: Glucose-induced insulin secretion from isolated pig islets, static incubation with pharmacological PKC/PKA activators; format: cell-based; conditions: 2 h, PMA 20 nM and/or forskolin 1 μM
Description: FIG. 1 is a histogram showing the insulin secretion from adult and neonate isolated pig islets. […] Insulin secretion was measured in the incubation media and expressed as a percentage of total insulin content of each batch of islets. The numbers above the columns represent the fold increase of insulin secretion in test groups compared to 15 mM glucose alone. * p<0.05. […] Finally, insulin was quantified in recovered media and in incubated islets by radioimmuno-assay.

Q: GLP-1 was tested. Which “stimulation index (insulin secretion G15/G1)” value (MIN6 cells) did it give?
A: 2.6

Q: What about the “effect on acute glucose-induced insulin secretion during perifusion, in words” value (adult pig islets) of the same compound?
A: virtually no effect

Q: `CCCCCCCCCCCCCC(=O)O[C@@H]1[C@@H](C)[C@@]2(O)[C@@H](C=C(CO)C[C@]3(O)C(=O)C(C)=C[C@@H]23)[C@@H]2C(C)(C)[C@]12OC(C)=O` [PMA, phorbol myristate acetate] was tested. Which “fold increase of insulin secretion compared to 15 mM glucose alone” value (isolated pig islets; islets from adult pigs) did it give?
A: 2 fold

Q: And the “fold increase of insulin secretion compared to 15 mM glucose alone” value (isolated pig islets; islets from neonate pigs)?
A: up to 8 fold
